From ChEMBL document CHEMBL4831516, “Development of Membrane-Active Honokiol/Magnolol Amphiphiles as Potent Antibacterial Agents against Methicillin-Resistant Staphylococcus aureus (MRSA)” (J Med Chem, 2021)
Values after ≈ are worked out from the molar mass of the structure shown.

What was measured:
[1] = test system: Staphylococcus aureus; assay: Antibacterial activity against Staphylococcus aureus ATCC29213 assessed as inhibition of visible growth incubated for 16 to 18 hrs by CLSI method; type: functional; details: time 16-18 hrs, read-out: MIC100
[2] = test system: Enterococcus faecalis; assay: Antibacterial activity against Enterococcus faecalis ATCC29212 assessed as inhibition of visible growth incubated for 16 to 18 hrs by CLSI method; type: functional; details: time 16-18 hrs, read-out: MIC100
[3] = test system: Bacillus subtilis; assay: Antibacterial activity against Bacillus subtilis assessed as inhibition of visible growth incubated for 16 to 18 hrs by CLSI method; type: functional; details: time 16-18 hrs, read-out: MIC100
[4] = test system: Micrococcus luteus; assay: Antibacterial activity against Micrococcus luteus assessed as inhibition of visible growth incubated for 16 to 18 hrs by CLSI method; type: functional; details: time 16-18 hrs, read-out: MIC100
[5] = test system: Escherichia coli; assay: Antibacterial activity against Escherichia coli ATCC25922 assessed as inhibition of visible growth incubated for 16 to 18 hrs by CLSI method; type: functional; details: time 16-18 hrs, read-out: MIC100
[6] = test system: Stenotrophomonas maltophilia; assay: Antibacterial activity against Stenotrophomonas maltophilia assessed as inhibition of visible growth incubated for 16 to 18 hrs by CLSI method; type: functional; details: time 16-18 hrs, read-out: MIC100
[7] = test system: Salmonella enterica; assay: Antibacterial activity against Salmonella enterica 349812 assessed as inhibition of visible growth incubated for 16 to 18 hrs by CLSI method; type: functional; details: time 16-18 hrs, read-out: MIC100
[8] = test system: Salmonella enterica; assay: Antibacterial activity against Salmonella enterica 8389 assessed as inhibition of visible growth incubated for 16 to 18 hrs by CLSI method; type: functional; details: time 16-18 hrs, read-out: MIC100
[9] = Hemolytic activity in sheep RBC assessed as hemolysis incubated for 1 hr; type: ADME, cell-based, Ovis aries, Erythrocyte; details: sheep red blood cells (erythrocytes)
[10] = Selectivity index, HC50 for hemolytic activity in sheep RBC to MIC for antibacterial activity against Staphylococcus aureus ATCC29213; type: toxicity; details: sheep red blood cells (erythrocytes), read-out: Selectivity Index
[11] = test system: Staphylococcus aureus; assay: Antibacterial activity against methicillin-resistant Staphylococcus aureus clinical isolate M-11 assessed as inhibition of visible growth incubated for 16 to 18 hrs by CLSI method; type: functional; details: time 16-18 hrs, read-out: MIC100
[12] = test system: Staphylococcus aureus; assay: Antibacterial activity against methicillin-resistant Staphylococcus aureus clinical isolate M-12 assessed as inhibition of visible growth incubated for 16 to 18 hrs by CLSI method; type: functional; details: time 16-18 hrs, read-out: MIC100
[13] = test system: Staphylococcus aureus; assay: Antibacterial activity against methicillin-resistant Staphylococcus aureus clinical isolate M-13 assessed as inhibition of visible growth incubated for 16 to 18 hrs by CLSI method; type: functional; details: time 16-18 hrs, read-out: MIC100
[14] = test system: Staphylococcus aureus; assay: Antibacterial activity against methicillin-resistant Staphylococcus aureus clinical isolate M-14 assessed as inhibition of visible growth incubated for 16 to 18 hrs by CLSI method; type: functional; details: time 16-18 hrs, read-out: MIC100
[15] = test system: Staphylococcus aureus; assay: Antibacterial activity against methicillin-resistant Staphylococcus aureus clinical isolate M-15 assessed as inhibition of visible growth incubated for 16 to 18 hrs by CLSI method; type: functional; details: time 16-18 hrs, read-out: MIC100
[16] = test system: Staphylococcus aureus; assay: Antibacterial activity against methicillin-resistant Staphylococcus aureus clinical isolate M-16 assessed as inhibition of visible growth incubated for 16 to 18 hrs by CLSI method; type: functional; details: time 16-18 hrs, read-out: MIC100
[17] = test system: Staphylococcus aureus; assay: Antibacterial activity against methicillin-resistant Staphylococcus aureus clinical isolate M-17 assessed as inhibition of visible growth incubated for 16 to 18 hrs by CLSI method; type: functional; details: time 16-18 hrs, read-out: MIC100
[18] = test system: Staphylococcus aureus; assay: Antibacterial activity against methicillin-resistant Staphylococcus aureus clinical isolate M-18 assessed as inhibition of visible growth incubated for 16 to 18 hrs by CLSI method; type: functional; details: time 16-18 hrs, read-out: MIC100
[19] = test system: Staphylococcus aureus; assay: Antibacterial activity against methicillin-resistant Staphylococcus aureus clinical isolate M-19 assessed as inhibition of visible growth incubated for 16 to 18 hrs by CLSI method; type: functional; details: time 16-18 hrs, read-out: MIC100
[20] = test system: Staphylococcus aureus; assay: Antibacterial activity against methicillin-resistant Staphylococcus aureus clinical isolate M-20 assessed as inhibition of visible growth incubated for 16 to 18 hrs by CLSI method; type: functional; details: time 16-18 hrs, read-out: MIC100

Row | Compound | MIC [1] [µg/mL] | MIC [2] [µg/mL] | MIC [3] [µg/mL] | MIC [4] [µg/mL] | MIC [5] [µg/mL] | MIC [6] [µg/mL] | MIC [7] [µg/mL] | MIC [8] [µg/mL] | HC50 at 1 h [9] [µg/mL] | selectivity ratio [10] | MIC [11] [µg/mL] | MIC [12] [µg/mL] | MIC [13] [µg/mL] | MIC [14] [µg/mL] | MIC [15] [µg/mL] | MIC [16] [µg/mL] | MIC [17] [µg/mL] | MIC [18] [µg/mL] | MIC [19] [µg/mL] | MIC [20] [µg/mL]
1 | C=CCc1ccc(OCC[N+](C)(C)CC(=O)NCC)c(-c2ccc(OCC[N+](C)(C)CC(=O)NCC)c(CC=C)c2)c1.[Br-].[Br-] | 8 | 8 | 4 | 4 | 32 | 32 | 32 | 64 | 639 | 79.9 | 8 | 8 | 8 | 4 | 4 | 4 | 4 | 4 | 4 | 4
2 | C=CCc1ccc(OCC[N+](C)(C)CC(=O)NCCCC)c(-c2ccc(OCC[N+](C)(C)CC(=O)NCCCC)c(CC=C)c2)c1.[Br-].[Br-] | 4 | 8 | 2 | 4 | 64 | 32 | 64 | 32 | 832 | 208 | 4 | 4 | 4 | 4 | 8 | 8 | 8 | 4 | 4 | 8
3 | C=CCc1ccc(OCC[N+](C)(C)CC(=O)N(CCCC)CCCC)c(-c2ccc(OCC[N+](C)(C)CC(=O)N(CCCC)CCCC)c(CC=C)c2)c1.[Br-].[Br-] | 4 | 2 | 4 | 4 | 16 | 32 | 32 | 32 | > 1280 | > 320 | 4 | 4 | 4 | 4 | 2 | 2 | 2 | 8 | 8 | 8
4 | C=CCc1ccc(OCC[N+](C)(C)CC(=O)NCCC)c(-c2ccc(OCC[N+](C)(C)CC(=O)NCCC)c(CC=C)c2)c1.[Br-].[Br-] | 16 | 8 | 16 | 16 | 64 | 64 | 64 | 64 | 703 | 43.9 | 8 | 8 | 8 | 8 | 4 | 4 | 4 | 8 | 8 | 8
5 | CN(C)c1cc(NC(=O)CNC(C)(C)C)c(O)c2c1C[C@H]1C[C@H]3[C@H](N(C)C)C(O)=C(C(N)=O)C(=O)[C@@]3(O)C(O)=C1C2=O [TIGECYCLINE] |  |  |  |  |  |  |  |  |  |  | 0.5 (≈ 0.854 µM) | 1 (≈ 1.71 µM) | 1 (≈ 1.71 µM) | 1 (≈ 1.71 µM) | 0.5 (≈ 0.854 µM) | 0.25 (≈ 0.427 µM) | 0.5 (≈ 0.854 µM) | 0.25 (≈ 0.427 µM) | 0.5 (≈ 0.854 µM) | 0.5 (≈ 0.854 µM)
6 | C=CCc1ccc(OCCC[N+](C)(C)CC(=O)NCCCCC)c(-c2ccc(OCCC[N+](C)(C)CC(=O)NCCCCC)c(CC=C)c2)c1.[Br-].[Br-] | 2 | 4 | 8 | 4 | 16 | 16 | 8 | 8 | 1090 | 546 | 4 | 2 | 4 | 4 | 2 | 2 | 2 | 2 | 2 | 4
7 | CN[C@H](CC(C)C)C(=O)N[C@H]1C(=O)N[C@@H](CC(N)=O)C(=O)N[C@H]2C(=O)N[C@H]3C(=O)N[C@H](C(=O)N[C@H](C(=O)O)c4cc(O)cc(O)c4-c4cc3ccc4O)[C@H](O)c3ccc(c(Cl)c3)Oc3cc2cc(c3O[C@@H]2O[C@H](CO)[C@@H](O)[C@H](O)[C@H]2O[C@H]2C[C@](C)(N)[C@H](O)[C@H](C)O2)Oc2ccc(cc2Cl)[C@H]1O [VANCOMYCIN] |  | 2 (≈ 1.38 µM) | 0.25 (≈ 0.173 µM) | 0.5 (≈ 0.345 µM) |  |  |  |  |  |  |  |  |  |  |  |  |  |  |  | 
8 | C=CCc1ccc(OCCCC[N+](C)(C)CC(=O)NCCC)c(-c2ccc(OCCCC[N+](C)(C)CC(=O)NCCC)c(CC=C)c2)c1.[Br-].[Br-] | 2 | 2 | 2 | 2 | 8 | 8 | 8 | 8 | 644 | 322 | 4 | 4 | 4 | 4 | 4 | 4 | 8 | 8 | 8 | 8
9 | C=CCc1ccc(OCCC[N+](C)(C)CC(=O)NCCC)c(-c2ccc(OCCC[N+](C)(C)CC(=O)NCCC)c(CC=C)c2)c1.[Br-].[Br-] | 2 | 2 | 1 | 4 | 16 | 16 | 32 | 32 | 682 | 341 | 4 | 4 | 4 | 2 | 2 | 2 | 4 | 4 | 4 | 2
10 | C=CCc1ccc(O)c(-c2cc(CC=C)ccc2OCCC[N+](C)(C)CC(=O)NCCCCCC)c1.[Br-] | 2 | 2 | 0.5 | 0.5 | 8 | 16 | 16 | 16 | 743 | 372 | 4 | 2 | 4 | 2 | 2 | 2 | 2 | 2 | 2 | 2
11 | C=CCc1ccc(O)c(-c2cc(CC=C)ccc2OCCC[N+](C)(C)CC(=O)NCCCCC)c1.[Br-] | 2 | 4 | 1 | 1 | 8 | 16 | 32 | 16 | 678 | 339 | 8 | 2 | 4 | 2 | 2 | 2 | 2 | 2 | 2 | 2
12 | C=CCc1ccc(OCCCC[N+](C)(C)CC(=O)N(CCCC)CCCC)c(-c2ccc(OCCCC[N+](C)(C)CC(=O)N(CCCC)CCCC)c(CC=C)c2)c1.[Br-].[Br-] | 2 | 4 | 2 | 4 | 8 | 16 | 8 | 16 | 633 | 316 | 4 | 8 | 8 | 8 | 8 | 16 | 8 | 8 | 4 | 8
13 | C=CCc1ccc(O)c(-c2cc(CC=C)ccc2O)c1 [MAGNOLOL] | 32 (≈ 120 µM) | 64 (≈ 240 µM) | 16 (≈ 60.1 µM) | 16 (≈ 60.1 µM) | > 128 | > 128 | > 128 | > 128 | 463 |  |  |  |  |  |  |  |  |  |  | 
14 | C=CCc1ccc(O)c(-c2ccc(O)c(CC=C)c2)c1 [HONOKIOL] | 64 (≈ 240 µM) | 64 (≈ 240 µM) | 32 (≈ 120 µM) | 32 (≈ 120 µM) | > 128 | > 128 | > 128 | > 128 | 534 |  |  |  |  |  |  |  |  |  |  | 
15 | C[C@H]1COc2c(N3CCN(C)CC3)c(F)cc3c(=O)c(C(=O)O)cn1c23.C[C@H]1COc2c(N3CCN(C)CC3)c(F)cc3c(=O)c(C(=O)O)cn1c23.O [LEVOFLOXACIN] | 0.5 | 0.25 | 0.5 | 0.25 |  | 0.5 | 0.25 | 0.25 |  |  | 1 | 1 | 5 | 1 | 1 | 1 | 5 | 0.5 | 1 | 1
